Source: patent publication US20100197502A1, “Crystalline form of [3-(4,5-dihydro-3-isoxazolyl)-2-methyl-4-(methylsulfonyl)phenyl]-(5-hydroxy-1-methyl-1H-pyrazol-4-yl)methanone” (priority 2007, published 2010)

What was measured:
[1] = Stability of formulations (e.g. aqueous suspension concentrates) comprising the solid form; assay type: physicochemical; conditions: compared between forms
[2] = Stability of the solvate at room temperature (release of solvent, conversion); assay type: physicochemical
Description: (§1) Crystallization of topramezone by evaporation of a solution of topramezone in a mixture of toluene with dichloromethane in the volume ratio 2:1 at temperatures below 30° C., in particular at temperatures in the range from 10 to 30° C. yields an unstable solvate V-S, which comprises 1 mol of toluene per mol of topramezone.
as §1, with “chlorobenzene” for “toluene”, “dichloromethane” for “dichloromethane in the volume ratio 2:1”, “VI-S,” for “V-S,”
Crystallization of topramezone by evaporation of a solution of topramezone in dichloromethane at temperatures below 30° C., in particular at temperatures in the range from 10 to 30° C. yields an unstable solvate VII-S, which comprises dichloromethane.

[3] = Stability of the crystalline modification with regard to conversion into another form; conditions: for stability of the crystalline modification: solid forms of topramezone compared

SMILES	stability of the crystalline modification [3]	stability of formulations which comprise the form [1]	further results
Cc1c(C(=O)c2cnn(C)c2O)ccc(S(C)(=O)=O)c1C1=NOCC1 [form VII-S]	lower stability		stability of formulations which comprise the form ([1]; listed as solvate VII-S): lower stability; behaviour of the solvate at room temperature ([2]; listed as solvate VII-S): releasing the solvent again and then forms the form I
Cc1c(C(=O)c2cnn(C)c2O)ccc(S(C)(=O)=O)c1C1=NOCC1 [form I, [3-(4,5-dihydro-3-isoxazolyl)-2-methyl-4-(methylsulfonyl)phenyl]-(5-hydroxy-1-methyl-1H-pyrazol-4-yl)methanone]	stable	markedly higher	stability with regard to conversion into another form ([3]; compared to other solid forms): increased stability
Cc1c(C(=O)c2cnn(C)c2O)ccc(S(C)(=O)=O)c1C1=NOCC1 [form IV, [3-(4,5-dihydro-3-isoxazolyl)-2-methyl-4-(methylsulfonyl)phenyl]-(5-hydroxy-1-methyl-1H-pyrazol-4-yl)methanone]	lower stability	lower stability	
Cc1c(C(=O)c2cnn(C)c2O)ccc(S(C)(=O)=O)c1C1=NOCC1 [form II, [3-(4,5-dihydro-3-isoxazolyl)-2-methyl-4-(methylsulfonyl)phenyl]-(5-hydroxy-1-methyl-1H-pyrazol-4-yl)methanone]	lower stability	lower stability	
Cc1c(C(=O)c2cnn(C)c2O)ccc(S(C)(=O)=O)c1C1=NOCC1 [form V-S]	lower stability		stability of formulations which comprise the form ([1]; listed as solvate V-S): lower stability; behaviour of the solvate at room temperature ([2]; listed as solvate V-S): releasing the solvent again and then forms a mixture of the forms II and IV
Cc1c(C(=O)c2cnn(C)c2O)ccc(S(C)(=O)=O)c1C1=NOCC1 [form VIII, [3-(4,5-dihydro-3-isoxazolyl)-2-methyl-4-(methylsulfonyl)phenyl]-(5-hydroxy-1-methyl-1H-pyrazol-4-yl)methanone]	lower stability	lower stability	
Cc1c(C(=O)c2cnn(C)c2O)ccc(S(C)(=O)=O)c1C1=NOCC1 [form VI-S]	lower stability		stability of formulations which comprise the form ([1]; listed as solvate VI-S): lower stability; behaviour of the solvate at room temperature ([2]; listed as solvate VI-S): releasing the solvent again and then forms the form II
Cc1c(C(=O)c2cnn(C)c2O)ccc(S(C)(=O)=O)c1C1=NOCC1 [form III, [3-(4,5-dihydro-3-isoxazolyl)-2-methyl-4-(methylsulfonyl)phenyl]-(5-hydroxy-1-methyl-1H-pyrazol-4-yl)methanone]	lower stability	lower stability	
